The record followed here is ChEMBL document CHEMBL5226373, “Dichapetalins from the Twigs of Dichapetalum longipetalum with Cytotoxic Activities” (J Nat Prod, 2023).

Format in all cases: functional, cell-based
In one test the test system is HL-60. The experiment in a line: Cytotoxicity against human HL-60 cells assessed as inhibition of cell growth by CCK-8 assay. Background: Tetrazolium dyes change colour on reduction, which living cells bring about.
For another test, the system named is MIA PaCa-2. Kind of test: Cytotoxicity against human MIA PaCa-2 cells assessed as inhibition of cell growth by CCK-8 assay.
The test system of a further test is A549. Kind of test: Cytotoxicity against human A549 cells assessed as inhibition of cell growth by CCK-8 assay.
In another test the test system is SU.86.86. The experiment in a line: Cytotoxicity against human SU-86-86 cells assessed as inhibition of cell growth by CCK-8 assay.
A further test concerns YAPC. Kind of test: Cytotoxicity against human YAPC cells assessed as inhibition of cell growth by CCK-8 assay.

Counter-ions that a name gives are not always drawn.

The IC50 is the point on the concentration scale where inhibition reaches its midpoint. Take `C/C(=C\[C@@H]1OC(=O)[C@](O)([C@@H]2CC[C@]34C[C@]23C=C[C@@H]2[C@@]3(C)CC=C(/C=C/c5ccccc5)C(C)(C)[C@@H]3C[C@@H](O)[C@]24C)[C@H]1O)CO`: the IC50 was 1000 nM in the test on HL-60, 960 nM with MIA PaCa-2 and 3800 nM with A549.

Take `C/C(=C\[C@@H]1C[C@@](O)([C@@H]2CC[C@]34C[C@]23C=C[C@@H]2[C@@]3(C)CC=C(/C=C/c5ccccc5)C(C)(C)[C@@H]3CC(=O)[C@]24C)C(=O)O1)CO`: the IC50 in the test on HL-60 was determined as 1700 nM; with MIA PaCa-2, 770 nM; in the test with A549, 2200 nM.

Take `COc1ccc([C@@H]2C=C3[C@H](C[C@]4(C)[C@H]5C=C[C@]67C[C@]6(CC[C@H]7[C@H]6CO[C@@H](/C=C(\C)CO)[C@@H]6O)[C@]5(C)[C@H](O)C[C@H]4C3(C)C)OO2)cc1`: the IC50 with HL-60 and in the test with A549 was greater than 10000 nM throughout.

As for `C/C(=C\[C@H]1C[C@@](O)([C@@H]2CC[C@]34C[C@]23CC[C@@H]2[C@@]3(C)Cc5oc(-c6ccccc6)cc5C(C)(C)[C@@H]3C[C@H](O)[C@]24C)C(=O)O1)CO`, the IC50 with HL-60 and in the test with A549 was greater than 10000 nM in each case.

As to `C/C(=C\[C@H]1C[C@@H]([C@@H]2CC[C@]34C[C@]23C=C[C@@H]2[C@@]3(C)CC=C(/C=C/c5ccccc5)C(C)(C)[C@@H]3C[C@@H](O)[C@]24C)C(=O)O1)CO`, the IC50 is 1600 nM in the test on SU.86.86; 350 nM with HL-60; 6700 nM with YAPC; 670 nM in the test with MIA PaCa-2; 2800 nM in the test with A549.

Consider `C/C(=C\[C@H]1C[C@@](O)([C@@H]2CC[C@]34C[C@]23C=C[C@@H]2[C@@]3(C)CC=C(/C=C\c5ccccc5)C(C)(C)[C@@H]3CC(=O)[C@]24C)C(=O)O1)CO`, for which the IC50 with HL-60 came to 1300 nM; with MIA PaCa-2, 2800 nM; in the test on A549, 3700 nM.

As to `C/C(=C\[C@@H]1OC(=O)[C@H]([C@@H]2CC[C@]34C[C@]23C=C[C@@H]2[C@@]3(C)CC(=O)/C(=C\C(=O)c5ccccc5)C(C)(C)[C@@H]3C[C@H](O)[C@]24C)[C@H]1O)CO`, the concentration for half-maximal inhibition (IC50) in the test on HL-60 and in the test with A549 was greater than 10000 nM in each case.

Regarding `C/C(=C\[C@@H]1OC(=O)[C@H]([C@@H]2CC[C@]34C[C@]23C=C[C@@H]2[C@@]3(C)CC=C(/C=C/c5ccccc5)C(C)(C)[C@@H]3C[C@H](O)[C@]24C)[C@H]1O)CO`, the IC50 in the test with HL-60 worked out at 280 nM; with MIA PaCa-2, 930 nM; with A549 it was 1800 nM.

With `COc1ccc([C@H]2C=C3[C@@H](C[C@]4(C)[C@H]5C=C[C@]67C[C@]6(CC[C@H]7[C@H]6CO[C@@H](/C=C(\C)CO)[C@@H]6O)[C@]5(C)[C@H](O)C[C@H]4C3(C)C)OO2)cc1`, the IC50 in the test with HL-60 and with A549 was greater than 10000 nM throughout.

Take `C/C(=C\[C@H]1C[C@@](O)([C@@H]2CC[C@]34C[C@]23C=C[C@@H]2[C@@]3(C)CC(=O)/C(=C\C(=O)c5ccccc5)C(C)(C)[C@@H]3C[C@@H](O)[C@]24C)C(=O)O1)CO`: the half-inhibitory concentration (IC50) in the test on HL-60 is greater than 10000 nM; in the test on A549 it was 9400 nM.

On to `COc1ccc(C(=O)[C@@H]2O[C@]23C(=O)C[C@]2(C)[C@H]4C=C[C@]56C[C@]5(CC[C@H]6[C@H]5C(=O)O[C@@H](/C=C(\C)CO)[C@@H]5O)[C@]4(C)[C@H](O)C[C@H]2C3(C)C)cc1`, for which the IC50 with HL-60 and with A549 was greater than 10000 nM in each case.

As for `CC(=O)O[C@@]1(C)CO[C@@]2(C1)OC(=O)[C@H]([C@@H]1CC[C@]34C[C@]13C=C[C@@H]1[C@@]3(C)CC=C5C[C@@H](c6ccccc6)OC[C@]5(C)[C@@H]3C[C@H](O)[C@]14C)[C@H]2O`, the figures for the IC50 in the test on HL-60 and in the test with A549 were greater than 10000 nM and 3300 nM, respectively.

With `C/C(=C\[C@@H]1OC(=O)[C@H]([C@@H]2CC[C@]34C[C@]23C=C[C@@H]2[C@@]3(C)CC=C(/C=C\c5ccccc5)C(C)(C)[C@@H]3C[C@@H](O)[C@]24C)[C@H]1O)CO`, the IC50 in the test with HL-60 is 3300 nM; in the test on MIA PaCa-2 it was greater than 10000 nM; in the test on A549 it was 9200 nM.

As to `C/C(=C\[C@H]1C[C@@](O)([C@@H]2CC[C@]34C[C@]23C=C[C@@H]2[C@@]3(C)CC=C5C[C@@H](c6ccccc6)OC[C@]5(C)[C@@H]3C[C@@H](O)[C@]24C)C(=O)O1)CO`, the values for the IC50 with HL-60 and in the test with A549 were greater than 10000 nM and 1100 nM, respectively.

For `COc1ccc(/C=C/C2=CC[C@]3(C)[C@H]4C=C[C@]56C[C@]5(CC[C@H]6[C@H]5C(=O)O[C@@H](/C=C(\C)CO)[C@@H]5O)[C@]4(C)[C@H](O)C[C@H]3C2(C)C)cc1`, the IC50 with SU.86.86 was 1700 nM; in the test with HL-60, 360 nM; in the test with YAPC it was greater than 10000 nM; in the test with MIA PaCa-2, 390 nM; in the test on A549, 1200 nM.

As for `COc1cccc2c1C(=O)c1c(O)c3c(c(O)c1C2=O)C[C@@](O)(C(=O)CO)C[C@@H]3O[C@H]1C[C@H](N)[C@H](O)[C@H](C)O1` [DOXORUBICIN HYDROCHLORIDE], the half-inhibitory concentration (IC50) is 330 nM with SU.86.86, 310 nM with YAPC and 250 nM with MIA PaCa-2.
